Test results reported in paper PMC8429733, “Oral intake of rice overexpressing ubiquitin ligase inhibitory pentapeptide prevents atrophy in denervated skeletal muscle” (NPJ Science of Food, 2021).
Where two headings read alike, the source gives them in different places. Where a SMILES comes first, the peptide text is derived from it. Where no end group is shown, it is not given here. [ ]: non-standard residue; d: D form. pY = N[C@@H](Cc1ccc(OP(=O)(O)O)cc1)C(=O)O

Assays:
[1] = Transport of Cblin pentapeptides across Caco-2 cell monolayers (apparent permeability); assay type: in vitro ADME; conditions: human; Caco-2 (C2BBe1) monolayers, apical to basolateral, apical HBSS pH 6.0 / basolateral HBSS pH 7.4, 1 mM peptide, 0.5% DMSO, 60 min, 37 °C, TEER >300 Ω·cm2, LC–TOF/MS, means ± SEM (n = 4–6)
Experimental: (§1) Cell culture and transport experiment were performed as described[24],[45]. Caco-2 cells were cultured using BD BioCoat Intestinal Epithelium Differentiation Environment kits (BD Bioscience, Franklin Lakes, NJ, USA). Caco-2 cells grown in 0.9 cm^2 Falcon cell culture inserts (polyethylene terephthalate membranes; pore size, 1.0 μm; Becton Dickinson and Co.) with a type I collagen-coated membrane (Cellmatrix type IA Collagen Gel Culturing Kit; Nitta Gelatin Inc., Osaka, Japan) were gently rinsed twice with Hanks balanced salt solution (HBSS; 137 mM NaCl, 5 mM KCl, 5.5 mM D-glucose, 4 mM NaHCO3, 0.75 mM NaHPO4·12H2O, 0.4 mM KH2PO4, 0.8 mM MgSO4·7H2O, and 1.26 mM CaCl2·2H2O, pH 6.0 adjusted with 10 mM 2-(N-morpholino)-ethanesulfonic acid). A portion (1.5 mL) of HBSS buffer (pH 6.0) was added to the apical side, and HBSS buffer (pH 7.4 adjusted with 10 mM N-2-hydroxyethylpiperazine-N′-2-ethanesulfonic acid) was added to the basolateral side. After equilibration for 15 min at 37 °C, the apical buffer was replaced with fresh HBSS (pH 6.0) containing 1 mM peptide and 0.5% DMSO. Portions (60 μL) of solutions were drawn from the apical or basolateral sides at 15, 30, 45, and 60 min to determine amounts of transported peptides. Monolayer integrity was evaluated by measuring TEER using a Millicell® ERS-2 Voltohmmeter (Merck KGaA, Darmstadt, Germany), and monolayers with a TEER of >300 Ω · cm^2 were included in the experiments. The apparent permeability coefficient (Papp, cm/s) was calculated as1 Pappcm/s=V/AC0×dC/dt where dC/dt is the change in concentration on the basolateral side over time (mM/s), V is the volume of solution in the basolateral compartment (1.5 mL), A is the surface area of the membrane (0.9 cm^2), and C0 is the initial concentration on the apical side (mM).
(§2) We investigated the involvement of PEPT1 in peptide transport by competition studies using 10 mM Gly-Sar, a PEPT1 substrate. We also investigated peptide transport over paracellular tight junctions by incubating monolayers with the tight junction opener, cytochalasin D (0.5 μg/mL) for 30 min[47] before evaluating transport.
(§3) Oligopeptides were separated at 40 °C using a linear gradient of 0.1% formic acid (FA) in MS grade water (solvent A) and 0.1% FA in acetonitrile (ACN) (solvent B) for 20 min at a flow rate of 0.2 mL/min, and an Agilent 1200 series HPLC system (Agilent Technologies Inc., Santa Clara, CA, USA) equipped with a Cosmosil 5C18-MS-II column (Φ 2.0 mm × 150 mm, Nacalai Tesque Inc., Kyoto, Japan). The MS conditions comprised: drying gas, N2; flow rate, 8.0 L/min; drying gas temperature, 200 °C; drying gas pressure, 1.6 bar; HV capillary voltage, −4500 V; capillary exit, 70.0 V; skimmer 1, 50.0 V; hexapole 1, 23.0 V; hexapole RF, 100.0 Vpp; skimmer 2, 23.0 V; lens 1 transfer, 52.0 μs, and mass range m/z 100–1000. A calibration solution of 10 mM sodium formate in 50% ACN was injected at the beginning of each run. Data were analyzed using Bruker Data Analysis version 3.2 software (Bruker, Billerica, MA, USA). Calibration curves were prepared using 0.1–10 μM standards.

Caco-2 cell monolayers [2] = assay: as above; assay type: in vitro ADME; conditions: LC–TOF/MS, n = 4–6; for Effect of Gly-Sar (PEPT1 substrate) on Papp: Caco-2, 1 mM peptide with 10 mM Gly-Sar, 60 min; for Papp in monolayers incubated with cytochalasin D vs untreated membranes: Caco-2, 1 mM peptide, pre-incubation with cytochalasin D 0.5 μg/mL for 30 min, transport 60 min
Experimental: as §1, §2, §3

Caco-2 cells = assay: Peptidase degradation and dephosphorylation during Caco-2 transport (fragment screening by LC-TOF/MS); assay type: in vitro ADME; conditions: for Resistance to peptidase degradation in Caco-2 cells: 1 mM peptide, 60 min, fragments screened by m/z, no other peptide fragments found (data not shown)
Experimental: as §1, with “After equilibration for 15 min at 37 °C, the apical buffer was replaced with fresh HBSS (pH 6.0) containing 1 mM peptide and 0.5% DMSO. Portions (60 μL) of solutions were drawn from the apical or basolateral sides at 15, 30, 45, and 60 min to determine amounts of transported peptides.” left out
Oligopeptides were separated at 40 °C using a linear gradient of 0.1% formic acid (FA) in MS grade water (solvent A) and 0.1% FA in acetonitrile (ACN) (solvent B) for 20 min at a flow rate of 0.2 mL/min, and an Agilent 1200 series HPLC system (Agilent Technologies Inc., Santa Clara, CA, USA) equipped with a Cosmosil 5C18-MS-II column (Φ 2.0 mm × 150 mm, Nacalai Tesque Inc., Kyoto, Japan). […] Data were analyzed using Bruker Data Analysis version 3.2 software (Bruker, Billerica, MA, USA). […]

[3] = Plasma pharmacokinetics after a single oral dose in rats; assay type: in vivo, Sprague-Dawley rats
[4] = LC-TOF/MS detection of CbR-derived peptides in serum and skeletal muscle of mice fed CbR; assay type: in vivo, Jcl:ICR mice; conditions: serum of mice fed CbR diet for 14 days
Experimental: as §3
31 Supplementary Figure 2. Analysis of serum collected from mice fed with Non-Tg or CbR using
33 Mice were handled as described in Methods. Briefly, 6-week-old male Jcl:ICR mice (Japan SLC
34 Inc., Shizuoka, Japan) were housed with access to a standard diet and water ad libitum. […]
42 specific for CbR group. ND, not detected. […]
60 analyzed by LC-TOF/MS under conditions described in Methods. […]
61 those of possible metabolites. […] ND, not detected.

CBLB = test system: CBLB; set-up: method as in 2 sources, ref 9 = [9]; PMID 26874193; doi:10.1016/j.abb.2016.02.014; 9. Ohno A Structural analysis of the TKB domain of ubiquitin ligase Cbl-b complexed with its small inhibitory peptide, Cblin Arch. Biochem. Biophys. 2016 594 1 7 10.1016/j.abb.2016.02.014 26874193 ||| ref 19 = [19]; PMID 23762056; doi:10.1155/2013/907565; 19. Abe T Soy glycinin contains a functional inhibitory sequence against muscle-atrophy-associated ubiquitin ligase Cbl-b Int. J. Endocrinol. 2013 2013 907565 907565 23762056 10.1155/2013/907565 PMC36; conditions: cited from earlier work
Text: The amino acid sequence of Cblin pentapeptide was designed to inhibit interaction between CBLB and IRS1 proteins based on the ability of CBLB to recognize and bind to phosphorylated tyrosine. […] We previously elucidated the crystal structure of the TKB domain of CBLB complexed with C ...

Caco-2 cell monolayers [5] = conditions: cited from earlier work
Experimental: Basolateral solutions were sampled every 15 min for 60 min and analyzed by LC–TOF/MS. […] Therefo ...

[6] = rat, single p.o. 50 mg/kg BW, n = 1
[7] = rat, single p.o. 200 mg/kg BW, n = 1

## CSCC[C@H](NC(=O)[C@H](Cc1ccc(O)cc1)NC(=O)CNC(=O)[C@@H](N)CC(=O)O)C(=O)N1CCC[C@H]1C(=O)O [Asp-Gly-Tyr-Met-Pro] (H-DGYMP-OH)
[1]
  Papp A→B at 60 min, 1 mM: 0.7 ± 0.08 ×10⁻⁶ cm/s
Caco-2 cell monolayers [2]
  Effect of Gly-Sar (PEPT1 substrate) on Papp: not affected
  Papp in monolayers incubated with cytochalasin D vs untreated membranes: significantly higher
Caco-2 cells
  Resistance to peptidase degradation in Caco-2 cells: resistant to peptidase degradation
[3]; male, Sprague-Dawley, plasma, po, rat, p.o. 100 mg/kg BW, elimination half-life, n = 5
  half-life: 28 min
[3]; male, Sprague-Dawley, plasma, po, rat, p.o. 100 mg/kg BW, n = 5, read-out: tmax (converted)
  tmax: 15 min
[3]; p.o. 100 mg/kg BW, plasma 30 min after administration, screened by m/z
  Metabolites found in rat plasma: Gly-Tyr-Met-Pro and Met-Pro
[3]; rat, p.o. 100 mg/kg BW, fasted 16 h, LC–TOF/MS with isotope-labelled internal standard, means ± SEM (n = 5)
  Cmax: 2.78 ± 0.17 pmol/mL plasma
[3]; [6]
  AUC0–60 min: 14.61 pmol ∙ min/mL plasma
  Cmax: 0.79 pmol/mL plasma
  t1/2: 8.99 min
  tmax: 10 min
[3]; [7]
  AUC0–60 min: 648.91 pmol ∙ min/mL plasma
  Cmax: 27.25 pmol/mL plasma
  t1/2: 5.58 min
  tmax: 30 min

## CSCC[C@H](NC(=O)[C@H](Cc1ccc(OP(=O)(O)O)cc1)NC(=O)CNC(=O)[C@@H](N)CC(=O)O)C(=O)N1CCC[C@H]1C(=O)O [Asp-Gly-pTyr-Met-Pro] (H-DG[pY]MP-OH)
[1]
  Papp A→B at 60 min, 1 mM: 0.35 ± 0.12 ×10⁻⁶ cm/s
Caco-2 cell monolayers [2]
  Effect of Gly-Sar (PEPT1 substrate) on Papp: not affected
  Papp in monolayers incubated with cytochalasin D vs untreated membranes: significantly higher
Caco-2 cells
  Resistance to peptidase degradation in Caco-2 cells: resistant to peptidase degradation
Caco-2 cells; basolateral solution after 60 min, Asp-Gly-Tyr-Met-Pro found at an estimated concentration similar to the intact peptide
  Dephosphorylation during Caco-2 transport: dephosphorylated

## CSCC[C@H](NC(=O)[C@H](Cc1ccc(O)cc1)NC(=O)CNC(=O)[C@H](CC(=O)O)NC(=O)[C@@H](N)CCC(N)=O)C(=O)N1CCC[C@H]1C(=O)N[C@@H](Cc1c[nH]c2ccccc12)C(=O)O [Gln-Asp-Gly-Tyr-Met-Pro-Trp] (H-QDGYMPW-OH)
[4]
  Uptake of intact heptapeptide into serum: undetectable

## Asp-Ile-Tyr-Asn-Pro [modified Cblin peptide (Cblin-like peptide from soy glycinin) with non-phosphorylated tyrosine]
CBLB
  Effect on CBLB-mediated IRS1 ubiquitination: suppresses

## Gly-Sar-Sar-Sar-Sar [pentapeptide transport model with methylated peptide bonds]
Caco-2 cell monolayers [5]
  Papp: 8.6 ± 0.6^a,* ×10^−7 cm/s
  Papp, as given in text: 8.6 ×10^−7 cm/s

## Gly-[pY]-Met
CBLB; in vitro
  Effect on CBLB-mediated ubiquitination of IRS1: suppressive effect
